According to patent US20260232767A1, “INTERLEUKIN-23 RECEPTOR ANTAGONIST PEPTIDES FOR USE IN THE TREATMENT OF PSORIASIS” (Janssen Pharmaceutica NV, priority 2023, published 2026):

Tested on: subjects with moderate-to-severe plaque psoriasis
Test: PASI response, Example 1 16-week dose-ranging study
Type: in vivo, human
Conditions: Week 16; for PASI 100% Improvement, n subjects / PASI ≥75% Improvement, n subjects / PASI ≥90% Improvement, n subjects / PASI ≥75% Improvement, % subjects / PASI ≥90% Improvement, % subjects: N=2
Experimental: The Psoriasis Area and Severity Index (PASI) is a system used for assessing and grading the severity of psoriatic lesions and their response to therapy. In the PASI system, the body is divided into four regions: the head, trunk, upper extremities, and lower extremities. Each of these areas is assessed and scored separately for erythema, induration, and scaling, which are each rated on a scale of 0 to 4 and extent of involvement on a scale of 0 to 6. The PASI produces a numeric score (a “PASI score”) that can range from 0 to 72. A higher score indicates more severe disease.
This was a randomized, double-blind, placebo-controlled, dose-ranging, parallel group, multicenter, interventional study in subjects with moderate-to-severe plaque psoriasis. A target of 240 subjects were enrolled in this study with 40 subjects planned per intervention group.
Clinician-reported outcomes including Psoriasis Area and Severity Index (PASI), Body Surface Area (BSA), Investigator's Global Assessment (IGA), Nail Psoriasis Area and Severity Index (NAPSI), Fingernail Physician's Global Assessment (f-PGA), Static Physician's Global Assessment of Genitalia (s-PGA-G), Physician's Global Assessment of Hands and/or Feet (hf-PGA), and Scalp Specific Investigator Global Assessment (ss-IGA) were obtained at Week 0, 8, and 16. PASI and IGA were also obtained at Weeks 1, 2, 4, and 12, and at Week 20, four weeks after the administration of the tablets has stopped.
The primary efficacy endpoint was the proportion of participants achieving a PASI 75 response at Week 16, defined as at least a 75% reduction from baseline in PASI total score.
For the primary analysis, composite strategy (non-responder imputation) was applied to address intercurrent event #1 (Discontinuation of study intervention due to lack of efficacy or due to an AE of worsening of psoriasis) and #2 (initiation of a protocol-prohibited medication or therapy that could improve psoriasis); and treatment policy strategy (observed data) was applied to intercurrent event #3 (Discontinuation of study intervention due to other reasons). Participants with missing data after application of ICEs are also considered as non-responders.
In addition to the response analysis, pairwise comparisons of each treatment group versus the placebo group were performed for the primary endpoint of PASI 75 at Week 16. Pairwise comparisons were not adjusted for multiplicity. The Cochran-Mantel-Haenszel chi-square statistic stratified by baseline weight category (≤90 kg, >90 kg) at a 2-sided significance level of 0.05 was used (Table 2).

[1] = 25 mg BID, peak plasma conc. <Q1
[2] = 25 mg BID, peak plasma conc. Q1 to <Q2
[3] = 25 mg BID, peak plasma conc. Q2 to <Q3
[4] = 25 mg BID, peak plasma conc. ≥Q3
[5] = 25 mg BID, trough plasma conc <Q1
[6] = 25 mg BID, trough plasma conc Q1 to <Q2
[7] = 25 mg BID, trough plasma conc Q2 to <Q3
[8] = 25 mg BID, trough plasma conc ≥Q3
[9] = 25 mg QD, peak plasma conc. <Q1
[10] = 25 mg QD, peak plasma conc. Q1 to <Q2
[11] = 25 mg QD, peak plasma conc. Q2 to <Q3
[12] = 25 mg QD, peak plasma conc. ≥Q3
[13] = 25 mg QD, trough plasma conc <Q1
[14] = 25 mg QD, trough plasma conc Q1 to <Q2
[15] = 25 mg QD, trough plasma conc Q2 to <Q3

CC(=O)NCCCC[C@@H]1NC(=O)[C@H](Cc2c[nH]c3c(C)cccc23)NC(=O)[C@H]([C@@H](C)O)NC(=O)[C@H](CC(N)=O)NC(=O)[C@@H](NC(C)=O)C(C)(C)SSC(C)(C)[C@@H](C(=O)N[C@@H](Cc2ccc(OCCN)cc2)C(=O)N[C@@H](Cc2ccc3ccccc3c2)C(=O)NC2(C(=O)N[C@@H](CCC(=O)O)C(=O)N[C@@H](CC(N)=O)C(=O)N[C@@H](Cc3cccnc3)C(=O)N(C)CC(N)=O)CCOCC2)NC1=O [IL-23 receptor antagonist peptide, Ac-[Pen]*-N-T-[W(7-Me)]-[Lys(Ac)]-[Pen]*-Phe[4-(2-aminoethoxy)]-[2-Nal]-[THP]-E-N-[3-Pal]-Sarc-NH2 (*[Pen]-[Pen]* formdisulfidebond)]
PASI 75 treatment difference vs placebo (25 mg BID): 41.9%
PASI 90 treatment difference vs placebo (25 mg BID): 24.5% (10.4%,
PASI 100 treatment difference vs placebo (25 mg BID): 9.7% (0.7%,
Subjects achieving PASI 75 (25 mg BID): 51.2%
Subjects achieving PASI 90 (25 mg BID): (26.8%)
Subjects achieving PASI 100 (25 mg BID): (9.8%)
PASI 75, % (25 mg BID, N=41): (51.2) %
PASI 90, % (25 mg BID, N=41): (26.8) %
PASI 100, % (25 mg BID, N=41): (9.8) %
PASI 100% Improvement, n subjects [1]: 0
PASI ≥75% Improvement, n subjects [1]: 0
PASI ≥90% Improvement, n subjects [1]: 0
PASI 100% Improvement, n subjects [2]: 0
PASI ≥75% Improvement, % subjects [2]: (100.0%)
PASI ≥75% Improvement, n subjects [2]: 2
PASI ≥90% Improvement, n subjects [2]: 0
PASI 100% Improvement, n subjects [3]: 0
PASI ≥75% Improvement, % subjects [3]: (50.0%)
PASI ≥75% Improvement, n subjects [3]: 1
PASI ≥90% Improvement, % subjects [3]: (50.0%)
PASI ≥90% Improvement, n subjects [3]: 1
PASI 100% Improvement, n subjects [4]: 0
PASI ≥75% Improvement, % subjects [4]: (50.0%)
PASI ≥75% Improvement, n subjects [4]: 1
PASI ≥90% Improvement, % subjects [4]: (50.0%)
PASI ≥90% Improvement, n subjects [4]: 1
PASI 100% Improvement, subjects [5]: 1 (16.7%)
PASI ≥75% Improvement, subjects [5]: 3 (50.0%)
PASI ≥90% Improvement, subjects [5]: 2 (33.3%)
PASI 100% Improvement, subjects [6]: 1 (16.7%)
PASI ≥75% Improvement, subjects [6]: 1 (16.7%)
PASI ≥90% Improvement, subjects [6]: 1 (16.7%)
PASI 100% Improvement, subjects [7]: 0
PASI ≥75% Improvement, subjects [7]: 3 (50.0%)
PASI ≥90% Improvement, subjects [7]: 2 (33.3%)
PASI 100% Improvement, subjects [8]: 2 (33.3%)
PASI ≥75% Improvement, subjects [8]: 100.0%
PASI ≥90% Improvement, subjects [8]: 3 (50.0%)
PASI 75 treatment difference vs placebo (25 mg QD): 27.9%
PASI 90 treatment difference vs placebo (25 mg QD): 23.3% (9.6%,
PASI 100 treatment difference vs placebo (25 mg QD): 11.6% (2.4%,
Subjects achieving PASI 90 (25 mg QD): (25.6%)
Subjects achieving PASI 100 (25 mg QD): (11.6%)
PASI 75, % (25 mg QD, N=43): (37.2) %
PASI 90, % (25 mg QD, N=43): (25.6) %
PASI 100, % (25 mg QD, N=43): (11.6) %
PASI 100% Improvement, n subjects [9]: 0
PASI ≥75% Improvement, % subjects [9]: (50.0%)
PASI ≥75% Improvement, n subjects [9]: 1
PASI ≥90% Improvement, % subjects [9]: (50.0%)
PASI ≥90% Improvement, n subjects [9]: 1
PASI 100% Improvement, n subjects [10]: 0
PASI ≥75% Improvement, % subjects [10]: (50.0%)
PASI ≥75% Improvement, n subjects [10]: 1
PASI ≥90% Improvement, % subjects [10]: (50.0%)
PASI ≥90% Improvement, n subjects [10]: 1
PASI 100% Improvement, n subjects [11]: 0
PASI ≥75% Improvement, % subjects [11]: (50.0%)
PASI ≥75% Improvement, n subjects [11]: 1
PASI ≥90% Improvement, % subjects [11]: (50.0%)
PASI ≥90% Improvement, n subjects [11]: 1
PASI 100% Improvement, n subjects [12]: 0
PASI ≥75% Improvement, % subjects [12]: (50.0%)
PASI ≥75% Improvement, n subjects [12]: 1
PASI ≥90% Improvement, % subjects [12]: (50.0%)
PASI ≥90% Improvement, n subjects [12]: 1
PASI 100% Improvement, subjects [13]: 1 (20.0%)
PASI ≥75% Improvement, subjects [13]: 2 (40.0%)
PASI ≥90% Improvement, subjects [13]: 2 (40.0%)
PASI 100% Improvement, subjects [14]: 1 (16.7%)
PASI ≥75% Improvement, subjects [14]: 2 (33.3%)
PASI ≥90% Improvement, subjects [14]: 2 (33.3%)
PASI 100% Improvement, subjects [15]: 0)
PASI ≥75% Improvement, subjects [15]: 2 (40.0%)
PASI ≥90% Improvement, subjects [15]: 0
